Laboratory results reported in patent US9782360B2, “Fluorinated CBD compounds, compositions and uses thereof” (YISSUM RESEARCH DEVELOPMENT COMPANY OF THE HEBREW …, priority 2013, dated 2017).
Where “and” joins values, the source holds several entries; their conditions need not be identical. Identical values can stand only once.

Columns and labels:
[1] = system: rats submitted to the elevated plus maze; test: Elevated plus-maze (EPM), intra-dlPAG microinjection in rats; assay type: in vivo, Wistar rats
Experimental: (§1) Male Wistar rats (220-250 g) and Swiss mice (25-30 g) originated from the Central Animal Farm of the School of Medicine of Ribeirão Preto (FMRP-USP) were maintained in groups of five animals per box (41×33×17 cm) in a temperature controlled room (24±2° C.) with a 12×12 h light-dark cycle. They received water and food ad libitum throughout the study period.
(§2) HU-474 (1, 3 and 10 mg/kg) was administered intraperitoneally (IP) in mice at 10 mL/kg volume and HU-475 (1, 3 and 10 nmol) was injected intra-dlPAG in rats. Both drugs were dissolved in 2% Tween 80 in sterile saline.
Rats were submitted to a stereotaxic surgery to unilaterally implant cannulae (9.0 mm, 0.6 mm OD) into the dlPAG (coordinates: lateral: −1.9 mm; depth: −4.3 mm; angle: 16° from lambda; Paxinos and Watson, 2005), fixed to the skull with acrylic cement (Campos & Guimarães, 2008). The surgeries were performed under anesthesia with tribromoethanol 2.5% (10.0 mL/kg, IP) and immediately after the animals received Veterinary Pentabiotic (0.2 mL, intramuscular) and analgesic (Banamine, 1.0 mL/kg, subcutaneous) to prevent infections and decrease post-surgical pain. After surgery, animals underwent a recovery period of 5-7 days before the behavioral tests.
Animals received unilateral microinjections of vehicle or HU-475 into the dlPAG before being submitted to the behavioral tests. To this aim, microneedles (10.0 mm, 0.3 mm OD), connected to a microsyringe (Hamilton, USA, […]) through a segment of polyethylene (P10) were inserted into the guide cannulae. Solutions were injected with the help of an infusion pump (KD Scientific, USA). A 0.2 μL solution volume was injected over 1 min. After the injections, the needles remained inserted in the cannulae for additional 30 seconds to prevent drug reflux (Campos & Guimarães, 2008).
The wood EPM used to perform the experiments was located in a sound attenuated and temperature controlled room (23° C.), with one incandescent light (40 W) placed 1.3 m away from the maze. The apparatus consists of two opposing open arms (50×10 cm) without side walls, perpendicular to two enclosed arms (50×10×40 cm), with a central platform common to all arms (10×10 cm). The apparatus is elevated 50 cm above the ground and has an acrylic edge (1 cm) in the open arms to prevent animal falls. In this model, rodents naturally avoid the open arms, exploring more extensively the enclosed arms. […] The test lasted for 5 min and was recorded. The animal behavior was analyzed with the help of the Anymaze Software (version 4.5, Stoelting). […]
(§3) Results from HU-475 and HU-474 tests in the elevated plus maze were analyzed by Kruskal-Wallis followed by Mann-Whitney tests. Data from animals tested in the FST were analyzed by one-way ANOVA followed by Duncan test.

mice tested in the FST [2] = test: Forced swimming test (FST) in mice; assay type: in vivo, Swiss mice; details: for immobility time in the FST: IP
Experimental: as §1, §2
Animals were individually submitted for 6 min of forced swimming in glass cylinders (height 25 cm, diameter 17 cm) containing 10 cm of water. The mice were videotaped and the immobility time (characterized by slow movements necessary to avoid drowning) was measured during the last 4-min period. The water was changed after each trial to maintain the temperature at 23-25° C. and to prevent the influence of alarm substances (Zanelati et al., 2010).
as §3

[3] = system: mice tested in the elevated plus maze; test: Elevated plus-maze (EPM) in mice, systemic (IP) administration; assay type: in vivo, Swiss mice
Experimental: as §1, §2
The wood EPM used to perform the experiments was located in a sound attenuated and temperature controlled room (23° C.), with one incandescent light (40 W) placed 1.3 m away from the maze. The apparatus consists of two opposing open arms (50×10 cm) without side walls, perpendicular to two enclosed arms (50×10×40 cm), with a central platform common to all arms (10×10 cm). The apparatus is elevated 50 cm above the ground and has an acrylic edge (1 cm) in the open arms to prevent animal falls. In this model, rodents naturally avoid the open arms, exploring more extensively the enclosed arms. Anxiolytic drugs increase the exploration in open arms without affecting the number of enclosed arms entries, which is usually used to assess general exploratory activity (File, 1992). Ten minutes after the last injection the animal was placed on the central platform of the maze with the head facing one of the enclosed arms. The test lasted for 5 min and was recorded. The animal behavior was analyzed with the help of the Anymaze Software (version 4.5, Stoelting). This software indicates the location of the animal in the EPM and automatically calculates the percentage of entries (Peo) and time spent in the open arms (Pto) and the number of entries in the enclosed arms (EA). Animals were only considered to enter an open or enclosed arm when 90% of their bodies were inside the region. All experiments were performed in the morning period (8 to 12 a.m.).
Similar to 5.1 except that the each arm measured 30×5 cm.
as §3

C57BL/6J mice = test: Pre-pulse inhibition (PPI) test, impairment induced by MK-801; assay type: in vivo
Experimental: The experiments were performed using male C57BL/6J mice weighting 25-30 g. The animals were maintained throughout the experimental period under standard laboratory conditions with free access to water and food will be used.
HU-474 (3 and 10 mg/kg) was dissolved in 2% Tween 80 in sterile saline (vehicle). MK-801 (a NMDA antagonist, 0.5 mg/kg, Sigma, USA) was dissolved in saline. Drugs were administered intraperitoneally (ip) at 10 mL/kg volume.
The animals (n=9-11/group) received i.p. administration of vehicle or HU-474 (3 and 10 mg/kg) followed, 30 minutes later, by saline or MK-801 (0.5 mg/kg), resulting in the following experimental groups: vehicle+saline, HU 10+saline, vehicle+MK-801, HU 3+MK-801, HU 10+MK-801. The animals were submitted to PPI test 20 minutes after the last drug injection.
The PPI was carried out in three consecutive steps. The first consisted of an acclimation period during which no stimulus was presented. In the second step, called habituation, only the stimulus that triggers the startle (pulse) was presented. The step that assessed the inhibition of startle response pulse consisted of 64 random presentations of the different stimuli: (i) pulse (white noise) 105 dB at 20 ms, (II) pre-pulse (pure tone frequency of 7 kHz) 80, 85 and 90 dB at 10 ms, (III) followed by pre-pulse 100 ms interval between them and (IV) zero (no stimulus). During this session the stimuli are presented at regular intervals of 30 s, 8 presentations of each stimulus. The percentage of the PPI was expressed as the percent inhibition of startle amplitude in response to multiple presentations of the pulse preceded by pre-pulse (PP), depending on the amplitude of the response only to the pulse (P), which was obtained in the following formula: % PPI=100−((PP/P)×100). […]
The percentage of PPI was analyzed by repeated measures MANOVA with the treatment as the independent factor and the prepulse intensity (80, 85 and 90 dB) as repeated measure.

Swiss mice [4] = details: Moreira and Guimarães, 2005; cited from earlier work
Swiss mice [5] = details: cited from earlier work
mice tested in the FST [6] = details: i.p., Swiss mice; doses tested 3, 10, 30 and 100 mg/kg; cited from earlier work
[7] = Campos & Guimarães, 2008; cited from earlier work
Swiss mice [8] = details: single administration i.p., MK801 0.3-1 mg/kg i.p., also tested 1 and 15 mg/kg; cited from earlier work
[9] = system: rats submitted to the elevated plus maze; details: intra-dlPAG, same paradigm; doses tested: 15, 30 and 60 nmol; cited from earlier work

## C=C(CF)[C@@H]1CCC(C)=CC1c1c(OC(C)=O)cc(CCCCC)cc1OC(C)=O (some centres unmarked) [HU-475, 10-fluoro-cannabidiol diacetate]
[1]; HU-475 1, 3 and 10 nmol intra-dlPAG
  number of enclosed arm entries: No effect
[1]; HU-475 1, 3 and 10 nmol intra-dlPAG, X^2=8.5, DF=4, p=0.075, FIG. 2
  percentage of time spent into the open arms: tended to do the same
[1]; HU-475 1, 3 and 10 nmol intra-dlPAG, X^2=9.66, DF=4, p<0.05, FIG. 1
  percentage of entries onto the open arms: increased
[1]; intra-dlPAG, compared with CBD effective dose
  potency relative to CBD (EPM, intra-dlPAG): 10 times

## C=C(C)[C@@H]1CCC(C)=CC1c1c(O)cc(CCCCC)c(F)c1O (some centres unmarked) [HU-474, 4′-fluoro-cannabidiol]
Mice tested in the FST [2]; dose of 3 m/kg, p=0.019, FIG. 5
  immobility time in the FST: decreased
Mice tested in the FST [2]; doses of 1 and 10 mg/kg
  immobility time in the FST: ineffective
Mice tested in the FST [2]; i.p., compared with CBD effective dose
  potency relative to CBD (forced swimming test): 10 times
[3]; HU-474 1, 3 and 10 mg/kg IP
  number of enclosed arms entries: No effect
[3]; HU-474 1, 3 and 10 mg/kg IP, FIG. 4
  percentage of entries onto the open arms: No effect
[3]; HU-474 1, 3 and 10 mg/kg IP, X^2=8.13, DF=3, p<0.05, FIG. 3
  percentage of time spent in the open arms: increased
[3]; systemic administration, bell-shaped dose-response curve
  effective dose (anxiolytic-like effects, EPM): 3 mg/kg
C57BL/6J mice; HU-474 10 mg/kg i.p., MK-801 0.5 mg/kg, all prepulse intensities (80, 85, 90 dB), P<0.05, FIG. 6
  MK-801 PPI disruption (effect of treatment): attenuated
C57BL/6J mice; i.p., C57BL/6J mice
  effective dose (attenuation of MK-801 PPI disruption): 10 mg/kg

## C[C@]12N[C@H](Cc3ccccc31)c1ccccc12 [MK-801, reference compound]
C57BL/6J mice; MK-801 0.5 mg/kg i.p., all prepulse intensities tested, P<0.05, Duncan post-test
  effect on PPI: significant PPI disruption

## C=C(C)[C@@H]1CCC(C)=C[C@H]1c1c(O)cc(CCCCC)cc1O [CBD, cannabidiol]
Swiss mice [4]
  dose able to attenuate the hyper-locomotion induced by MK801: 30 mg/kg
Swiss mice [5]
  effective doses (hyperlocomotion induced by d-amphetamine): 30 mg/kg and 60 mg/kg
Mice tested in the FST [6]
  dose producing an antidepressant-like effect in the forced swimming test: 30 mg/kg
[7]
  dose producing an anxiolytic-like effect in the Vogel punished licking test: 30 nmol
Swiss mice [8]
  effective dose (attenuation of PPI deficits caused by MK801): 5 mg/kg
[9]
  effective dose (anxiolytic-like effect, EPM): 30 nmol
